How the values were obtained:
[1] = test system: C5b,6, C5, C6, C7, thrombin; assay: differential scanning fluorimetry (DSF), all proteins tested; format: binding; conditions: 1 mM
Protocol: For DSF, 25 μL reaction mixes consisting of 0.4 mg/mL protein (0.14 mg/mL for C5b,6), varying concentrations of polyphosphate diluted in HBS (20 mM HEPES, 150 mM NaCl, pH 7.4), and 5× SYPRO Orange were loaded into MicroAmp Fast Optical 96-well Reaction Plates (Applied Biosystems). Samples were heat denatured in an Applied Biosystems StepOnePlus Real-Time PCR System using a ramp configuration starting at 25° C. and increasing at 1 C.° min^−1 to 95° C. Fluorescence (in relative fluorescence units, RFU) was measured every 30 seconds^38. Data for each curve were normalized to the maximum and the minimum of the curve.
In another approach, differential scanning fluorimetry (DSF) was used to determine the thermal stability of the complement proteins in the presence and absence of polyphosphate. This technique involves heat-denaturing proteins and exposing internal hydrophobic regions to the aqueous environment, which are detected by the fluorescent dye SYPRO Orange^38. Interactions between a protein and a binding partner often change the thermal stability of the protein, observed as a shift in the melting (denaturation) curve. C5b,6, C5, C6, and C7 were individually incubated with a range of concentrations of polyphosphate>1000 and relative fluorescence (RFU) was measured as the proteins were thermally denatured. An increase in RFU indicates protein denaturation. […]

[2] = test system: total complement-mediated hemolytic activity; assay: total complement-mediated hemolytic activity assay (4.5% NHS, rabbit erythrocytes); format: cell-based, human; conditions: rRBC, 30 min, read-out: IC50 (concentration required to achieve half maximal inhibition of lysis), total hemolytic activity
Description: Erythrocyte lysis assays were used to measure complement-mediated hemolytic activity. Erythrocyte (RBC) lysis assays as previously described^18,37 were used to measure complement activity. For alternative pathway assays and for total hemolytic activity assays, unsensitized rabbit erythrocytes were used. Chicken erythrocytes were used for the terminal pathway assays.
Erythrocytes were washed three times in GVB with the reaction buffers as indicated, and counted using the Advia 120 Hematology System from Siemens (Siemens, Erlangen, Germany). Reactions in 300 μL were allowed to proceed for 30 min at 37° C., after which unlysed cells were pelleted by centrifugation at 600×g. Erythrocyte lysis, reflected by the released hemoglobin in the supernatant, was quantified by measuring the absorbance at 405 nm using the Mithras LB 940 microplate reader from Berthold Technologies (Bad Wildbad, Germany). Percent lysis was determined relative to the control of 100% lysis with H2O. […]
For total hemolytic activity assays, normal human serum (NHS) (4.5%), polyphosphate, and rabbit erythrocytes (rRBC) (6.0×10^7 cells/mL) were added sequentially to initiate lysis. […] Increasing absorbance corresponds to increasing hemoglobin release from lysed red blood cells. The linear region of the curve was determined to be between 20-80% lysis, corresponding to 2.5-4.5% serum. […]

In the case of `O=P(O)(O)O` [P1, Orthophosphate], the “effect on thermal stability (DSF)” value [1] is reported as “had no effect on the thermal stability” and the IC50 [2] is reported as about 3.5 mM.

From patent publication US9408871B2, “Methods for inhibiting complement activation and uses thereof” (THE UNIVERSITY OF BRITISH COLUMBIA, priority 2013, dated 2016)
